Results reported in US20240082125A1, “USE OF A SHORT CHAIN FATTY ACID AS ANTIDANDRUFF AGENT” (NANYANG TECHNOLOGICAL UNIVERSITY, priority 2020, published 2024).
Several values for one entry are separate records, joined by “and”; a condition that tells them apart may be missing. Equal entries are not always repeated.

Assays:
C. acnes ATCC 6919 = assay: C. acnes growth assay, colony forming units; format: cell-based, Cutibacterium acnes; details: for C. acnes (log10 CFUs/ml): 50 mM, after 72 hours, replicates #1-#3; for growth of C. acnes: 30 mM, MBHI medium pH 7, anaerobic, FIG. 2
Experimental: (§1) M. restricta ATCC MYA-4611, S. epidermidis ATCC 12228, and C. acnes ATCC 6919 were purchased from ATCC. M. restricta was routinely cultured in modified Dixon (MD) medium (pH 6), composed of 36 g of Malt extract (Sigma 70167), 20 g of Dessicated Oxbile (Sigma 70168), 6 g of Bacto™ Peptone (BD 211677), 1% (v/v) Tween 40 (Sigma P1504), 0.2% (v/v) Oleic Acid (Fluka 75096), and 0.2% (v/v) Glycerol (Promega H5433) in 1 liter of dH2O. C. acnes and S. epidermidis were cultured in modified brain heart infusion (MBHI) medium (pH 7), containing 37 g of BHI base (Accumedia 7116B), 0.4% (v/v) of Tween-40 (Sigma P1504), 0.2% (v/v) of Oleic acid (Fluka 75096), and 0.2% (v/v) of Glycerol (Promega H5433) in 1 liter of dH2O. M. restricta and S. epidermidis were routinely grown under aerobic conditions, shaken at 200 rpm, and C. acnes was grown under anaerobic conditions. All organisms were grown at 33° C. Wherever required, media was supplemented with: sodium acetate (CH3COOH, Sigma Ref. 32319), sodium propionate ([…], Sigma Ref. P1880), sodium butyrate (CH3(CH2)2COOH, Sigma Ref. 303410), valeric acid (CH3(CH2)3COOH, Fluka Ref. 75054). For valeric acid, the pH in modified cell media was neutralized with NaOH (Sodium hydroxide, Sigma 283060).
(§2) M. restricta cells stored as glycerol stocks (30% glycerol in MD medium) were revived by plating on MD agar plates and incubated for 2-3 days at 33° C. A pre-culture was made from the lawn of cells grown on the agar plate. Cells from % of the plate was scrapped off, homogenized after suspending in 70 ml of MD medium in a 250 ml baffled erlenmeyer flask and incubated for 24 hours at 33° C. at 200 rpm. For experiments, 10^7 cell/ml was inoculated in fresh MD medium with or without the short chain fatty acids. Growth was monitored by measuring the cell density with SYTO 9 for up to 24 hours or 96 hours. C. acnes and S. epidermidis were inoculated into MBHI medium at starting cell density of OD600 0.05 and 0.25, respectively. Bacterial growth was measured by plating the serially diluted cultures on Brain Heart Infusion agar plates at different time points and colonies were counted after 72 hours for C. acnes and 24 hours for S. epidermidis.
(§3) Bacterial growth was quantified by plating the serially diluted cultures on Brain Heart Infusion agar plates at different time points and colonies were counted after 72 hours for C. acnes and 24 hours for Staphylococcus sp.
(§4) M. restricta ATCC MYA-4611, S. epidermidis ATCC 12228 and C. acnes ATCC 6919 were purchased from ATCC. M. restricta were routinely cultured in Modified Dixon (MD) medium (pH 6), composed of 36 g of Malt extract (Sigma 70167), 20 g of Dessicated Oxbile (Sigma 70168), 6 g of Bacto™ Peptone (BD 211677), 1% (v/v) Tween 40 (Sigma P1504), 0.2% (v/v) Oleic Acid (Fluka 75096), and 0.2% (v/v) Glycerol (Promega H5433) in 1 liter of dH2O. C. acnes and S. epidermidis were cultured in modified brain heart infusion (MBHI) medium (pH 7), containing 37 g of BHI base (Accumedia 7116B), 0.4% (v/v) of Tween-40 (Sigma P1504), 0.2% (v/v) of Oleic acid (Fluka 75096), and 0.2% (v/v) of Glycerol (Promega H5433) in 1 liter of dH2O. M. restricta and S. epidermidis were routinely grown under aerobic conditions, shaken at 200 rpm, and C. acnes was grown under anaerobic conditions. All organisms were grown at 33° C. Wherever required, media was supplemented with 50 mM of: sodium propionate ([…], Sigma Ref. P1880), sodium butyrate (CH3(CH2)2COOH, Sigma Ref. 303410), valeric acid (CH3(CH2)3COOH, Fluka Ref. 75054). For valeric acid, the pH in modified cell media was neutralized with NaOH (Sodium hydroxide, Sigma 283060).
(§5) M. restricta cells stored as glycerol stocks (30% glycerol in MD medium) were revived by plating on MD agar plates and incubated for 2-3 days at 33° C. A pre-culture was made from the lawn of cells grown on the agar plate.

[1] = test system: S. epidermidis ATCC 12228; assay: S. epidermidis growth assay, colony forming units; format: cell-based, Staphylococcus epidermidis; details: for S. epidermidis (log10 CFUs/ml): 50 mM, after 24 hours, replicates #1-#3; for growth of S. epidermidis: 30 mM, MBHI medium pH 7, aerobic, FIG. 3
Experimental: as §1, §2, §3, §4, §5

[2] = test system: M. restricta ATCC MYA-4611; assay: M. restricta cell viability by ATP estimation (BacTiterGlo); format: cell-based, Malassezia restricta; details: 50 mM, ATP in lysate of 24 hours grown cells, replicates #1-#3
Experimental: M. restricta ATCC MYA-4611, S. epidermidis ATCC 12228 and C. acnes ATCC 6919 were purchased from ATCC. M. restricta were routinely cultured in Modified Dixon (MD) medium (pH 6), composed of 36 g of Malt extract (Sigma 70167), 20 g of Dessicated Oxbile (Sigma 70168), 6 g of Bacto™ Peptone (BD 211677), 1% (v/v) Tween 40 (Sigma P1504), 0.2% (v/v) Oleic Acid (Fluka 75096), and 0.2% (v/v) Glycerol (Promega H5433) in 1 liter of dH2O. C. acnes and S. epidermidis were cultured in modified brain heart infusion (MBHI) medium (pH 7), containing 37 g of BHI base (Accumedia 7116B), 0.4% (v/v) of Tween-40 (Sigma P1504), 0.2% (v/v) of Oleic acid (Fluka 75096), and 0.2% (v/v) of Glycerol (Promega H5433) in 1 liter of dH2O. […]
M. restricta cells stored as glycerol stocks (30% glycerol in MD medium) were revived by plating on MD agar plates and incubated for 2-3 days at 33° C. […] Growth was monitored by measuring the cell density with SYTO 9 or by estimating the ATP concentration (see below) for up to 24 hours or 96 hours. […] Bacterial growth was measured by plating the serially diluted cultures on Brain Heart Infusion agar plates at different time points and colonies were counted after 72 hours for C. acnes and 24 hours for S. epidermidis.
Cellular ATP was measured using the BacTiterGlo Microbial cell viability (Promega) kit following manufacturers protocol. […]

[3] = test system: M. restricta ATCC MYA-4611; assay: M. restricta growth assay, total cell numbers by SYTO9 fluorescence; format: cell-based, Malassezia restricta; details: for growth of Malassezia restricta: 30 mM, MD medium pH 6, FIG. 1; for M. restricta (log10 total cell counts): 50 mM, after 72 hours, SYTO9, starting density 1×10^7 cells/ml, replicates #1-#3
Experimental: as §1
M. restricta cells from 1 ml of the culture were harvested by centrifugation at 10,000×g for 5 minutes at room temperature. Cells were washed once, pelleted, and re-suspended in 0.9% NaCl solution. Equal volumes of the above cell suspension and SYTO 9 working stock (3 ul SYTO 9 component of the Live/Dead BacLight bacterial viability kit, ThermoFisher Scientific, L7012, diluted in 1 ml of 0.9% NaCl solution) were mixed well, incubated in dark for 10 minutes, and fluorescent intensity unit was measured in a Tecan microplate reader with excitation/emission wavelengths of 485/530 nm. A standard for correlation of fluorescence units and concentration was prepared using a fluorimeter and hemocytometer under a light microscope. This standard curve was used to calculate the total cell numbers.
as §2
M. restricta ATCC MYA-4611, S. epidermidis ATCC 12228 and C. acnes ATCC 6919 were purchased from ATCC. M. restricta were routinely cultured in Modified Dixon (MD) medium (pH 6), composed of 36 g of Malt extract (Sigma 70167), 20 g of Dessicated Oxbile (Sigma 70168), 6 g of Bacto™ Peptone (BD 211677), 1% (v/v) Tween 40 (Sigma P1504), 0.2% (v/v) Oleic Acid (Fluka 75096), and 0.2% (v/v) Glycerol (Promega H5433) in 1 liter of dH2O. C. acnes and S. epidermidis were cultured in modified brain heart infusion (MBHI) medium (pH 7), containing 37 g of BHI base (Accumedia 7116B), 0.4% (v/v) of Tween-40 (Sigma P1504), 0.2% (v/v) of Oleic acid (Fluka 75096), and 0.2% (v/v) of Glycerol (Promega H5433) in 1 liter of dH2O. M. restricta and S. epidermidis were routinely grown under aerobic conditions, shaken at 200 rpm, and C. acnes was grown under anaerobic conditions. All organisms were grown at 33° C.

Compound: CCCCCCCC(=O)OCC(O)CO (stereo not shown) [GM_Cpy, glyceryl mono caprylate]
- C. acnes (log10 CFUs/ml) (C. acnes ATCC 6919): 0.00 log10 CFUs/ml
- S. epidermidis (log10 CFUs/ml) [1]: 0.00 log10 CFUs/ml
- M. restricta (Relative luminescence units) [2]: 16700 Relative luminescence units and −1470 Relative luminescence units and −2030 Relative luminescence units

Compound: CC(=O)[O-].[Na+] [acetate, sodium acetate]
- growth of Malassezia restricta [3]: No effect

Compound: CCCC(=O)[O-].[Na+] [NaB, sodium butyrate]
- growth of C. acnes (C. acnes ATCC 6919): do not affect
- C. acnes (log10 CFUs/ml) (C. acnes ATCC 6919): 8.26 log10 CFUs/ml and 8.10 log10 CFUs/ml and 8.34 log10 CFUs/ml
- growth of S. epidermidis [1]: do not affect
- S. epidermidis (log10 CFUs/ml) [1]: 9.15 log10 CFUs/ml and 8.87 log10 CFUs/ml and 8.90 log10 CFUs/ml
- growth of Malassezia restricta [3]: completely inhibit
- M. restricta (log10 total cell counts) [3]: 6.94 log10 total cell counts and 6.88 log10 total cell counts (2×)

Compound: CCC(=O)[O-].CCC(=O)[O-].[Zn+2] [Zn_Pro, zinc propionate]
- C. acnes (log10 CFUs/ml) (C. acnes ATCC 6919): 0.00 log10 CFUs/ml
- S. epidermidis (log10 CFUs/ml) [1]: 5.00 log10 CFUs/ml and 5.05 log10 CFUs/ml and 0.00 log10 CFUs/ml
- M. restricta (Relative luminescence units) [2]: 12500 Relative luminescence units and 11900 Relative luminescence units and 10300 Relative luminescence units

Compound: CCCCCC(=O)O [Cpo, caproic acid]
- C. acnes (log10 CFUs/ml) (C. acnes ATCC 6919): 8.29 log10 CFUs/ml and 8.26 log10 CFUs/ml and 8.41 log10 CFUs/ml
- S. epidermidis (log10 CFUs/ml) [1]: 7.64 log10 CFUs/ml and 7.67 log10 CFUs/ml and 7.57 log10 CFUs/ml
- M. restricta (log10 total cell counts) [3]: 6.93 log10 total cell counts and 6.95 log10 total cell counts and 6.87 log10 total cell counts

Compound: CCCCC(=O)[O-].[Na+] [NaV, sodium valerate]
- growth of C. acnes (C. acnes ATCC 6919): do not affect
- C. acnes (log10 CFUs/ml) (C. acnes ATCC 6919): 8.90 log10 CFUs/ml and 8.03 log10 CFUs/ml and 8.00 log10 CFUs/ml
- growth of S. epidermidis [1]: do not affect
- S. epidermidis (log10 CFUs/ml) [1]: 8.90 log10 CFUs/ml and 9.29 log10 CFUs/ml and 9.08 log10 CFUs/ml
- growth of Malassezia restricta [3]: completely inhibit
- M. restricta (log10 total cell counts) [3]: 6.86 log10 total cell counts and 6.92 log10 total cell counts and 6.93 log10 total cell counts

Compound: CCCCCCCC(=O)O [Cpy, caprylic acid]
- C. acnes (log10 CFUs/ml) (C. acnes ATCC 6919): 0.00 log10 CFUs/ml
- S. epidermidis (log10 CFUs/ml) [1]: 3.34 log10 CFUs/ml and 3.03 log10 CFUs/ml and 3.00 log10 CFUs/ml
- M. restricta (log10 total cell counts) [3]: 6.98 log10 total cell counts and 6.91 log10 total cell counts and 6.84 log10 total cell counts

Compound: CCCCCC(=O)OCC [EH_Cpo, ethyl caproate]
- C. acnes (log10 CFUs/ml) (C. acnes ATCC 6919): 9.94 log10 CFUs/ml and 8.47 log10 CFUs/ml and 8.00 log10 CFUs/ml
- S. epidermidis (log10 CFUs/ml) [1]: 5.55 log10 CFUs/ml and 5.54 log10 CFUs/ml and 5.66 log10 CFUs/ml
- M. restricta (log10 total cell counts) [3]: 6.80 log10 total cell counts and 6.69 log10 total cell counts and 6.74 log10 total cell counts
